Data from PubChem BioAssay AID190 (DTP/NCI, 2004).
Values joined by “and” are separate entries in the source; they are usually repeats but may differ in a detail not shown here. Equal values may be shown once. Inconclusive results and toxic doses are left out.

Tested on: AKR/Lw mice, AKR lymphoma ip, median survival T/C
Test: NCI In Vivo Anticancer Drug Screen. Data for tumor model Lymphoma AKR (Transplanted) (intraperitoneal) in AKR/Lw mice
Details: endpoint: median survival time, higher = longer survival
Experimental: The antitumor activity of compounds was measured in mice bearing transplantable tumors. Survival or tumor size were measured and the results are expressed as the measurement made in the treated group (T) divided by the measurement made in the vehicle treated control group (C). The tumor model used in this assay is Lymphoma AKR (Transplanted) (intraperitoneal) in AKR/Lw mice

[1] = dose: 100.0 mg/kg/injection, schedule: Q01DX001 (ip), vehicle: Klucel (hydroxypropylcellulose) (HPC)
[2] = dose: 100.0 mg/kg/injection, schedule: Q04DX003 (ip), vehicle: Klucel (hydroxypropylcellulose) (HPC)
[3] = dose: 200.0 mg/kg/injection, schedule: Q01DX001 (ip), vehicle: Klucel (hydroxypropylcellulose) (HPC)
[4] = dose: 200.0 mg/kg/injection, schedule: Q04DX003 (ip), vehicle: Klucel (hydroxypropylcellulose) (HPC)
[5] = dose: 400.0 mg/kg/injection, schedule: Q01DX001 (ip), vehicle: Klucel (hydroxypropylcellulose) (HPC)
[6] = dose: 150.0 mg/kg/injection, schedule: Q01DX009 (ip), vehicle: saline
[7] = dose: 100.0 mg/kg/injection, schedule: Q01DX001 (ip), vehicle: saline
[8] = dose: 200.0 mg/kg/injection, schedule: Q01DX001 (ip), vehicle: saline
[9] = dose: 50.0 mg/kg/injection, schedule: Q04DX003 (ip), vehicle: Klucel (hydroxypropylcellulose) (HPC)

For Clc1ccc(/C(=[C](\[Hg]/[C](=C(\c2ccccc2)c2ccc(Cl)cc2)c2ccccc2)c2ccccc2)c2ccccc2)cc1, the T/C [1] was 97 % of control, the T/C [2] was 100 % of control and the T/C [3] was 107 % of control. The T/C [4] was 88 % of control, the T/C [5] was 97 % of control and the T/C (dose: 400.0 mg/kg/injection, schedule: Q04DX003 (ip), vehicle: Klucel (hydroxypropylcellulose) (HPC)) was 100 % of control.
CO[C@H](C(=O)[C@@H](O)[C@@H](C)O)[C@@H]1Cc2cc3cc(OC4CC(OC5CC(O)C(O)C(C)O5)C(O)C(C)O4)c(C)c(O)c3c(O)c2C(=O)[C@H]1OC1CC(OC2CC(OC3CC(C)(O)C(O)C(C)O3)C(O)C(C)O2)C(O)C(C)O1 (stereo partly drawn) was tested, and the T/C (dose: 0.12 mg/kg/injection, schedule: Q01DX009 (ip), vehicle: saline) was 115 % of control, the T/C (dose: 0.25 mg/kg/injection, schedule: Q01DX009 (ip), vehicle: water) was 95 % of control and the T/C (dose: 0.5 mg/kg/injection, schedule: Q01DX009 (ip), vehicle: water) was 110 % of control.
For CC(C)c1ccc(C(c2c(O)c3ccccc3oc2=O)c2c(O)c3ccccc3oc2=O)cc1, the T/C [1] was 113 % of control, the T/C [3] was 106 % of control and the T/C [5] was 90 % of control.
With CN(C)c1nc(N(C)C)nc(N(C)C)n1 the T/C (dose: 80.0 mg/kg/injection, schedule: Q04DX003 (ip), vehicle: Klucel (hydroxypropylcellulose) (HPC)) was 111 % of control and the T/C (dose: 160.0 mg/kg/injection, schedule: Q04DX003 (ip), vehicle: Klucel (hydroxypropylcellulose) (HPC)) was 108 % of control.
With Nc1n[nH]c(N)n1 the T/C (dose: 37.5 mg/kg/injection, schedule: Q06HX012 (ip), vehicle: saline) was 96 % of control, the T/C (dose: 37.5 mg/kg/injection, schedule: Q06HX016 (ip), vehicle: saline) was 100 % of control and the T/C (dose: 50.0 mg/kg/injection, schedule: Q01DX010 (ip), vehicle: saline) was 106 % of control. The T/C (dose: 75.0 mg/kg/injection, schedule: Q06HX008 (ip), vehicle: saline) was 100 % of control, the T/C (dose: 75.0 mg/kg/injection, schedule: Q06HX012 (ip), vehicle: saline) was 93 % of control and the T/C (dose: 75.0 mg/kg/injection, schedule: Q06HX016 (ip), vehicle: saline) was 96 % of control. For the same compound, the T/C (dose: 100.0 mg/kg/injection, schedule: Q01DX010 (ip), vehicle: saline) was 103 % of control, the T/C (dose: 125.0 mg/kg/injection, schedule: Q06HX004 (ip), vehicle: saline) was 116 % of control and the T/C [6] was 103 % of control. For the same compound, the T/C (dose: 150.0 mg/kg/injection, schedule: Q06HX008 (ip), vehicle: saline) was 93 % of control, the T/C (dose: 150.0 mg/kg/injection, schedule: Q06HX012 (ip), vehicle: saline) was 110 % of control and the T/C (dose: 150.0 mg/kg/injection, schedule: Q06HX016 (ip), vehicle: saline) was 103 % of control. The T/C (dose: 175.0 mg/kg/injection, schedule: Q01DX010 (ip), vehicle: saline) was 109 % of control, the T/C (dose: 200.0 mg/kg/injection, schedule: Q04DX003 (ip), vehicle: saline) was 106 % of control and the T/C (dose: 250.0 mg/kg/injection, schedule: Q01DX010 (ip), vehicle: saline) was 112 % of control. For the same compound, the T/C (dose: 250.0 mg/kg/injection, schedule: Q06HX004 (ip), vehicle: saline) was 90 % of control and 92 % of control and 119 % of control, the T/C (dose: 300.0 mg/kg/injection, schedule: Q01DX009 (ip), vehicle: saline) was 100 % of control and the T/C (dose: 300.0 mg/kg/injection, schedule: Q06HX008 (ip), vehicle: saline) was 107 % of control. For the same compound, the T/C (dose: 300.0 mg/kg/injection, schedule: Q06HX012 (ip), vehicle: saline) was 100 % of control, the T/C (dose: 375.0 mg/kg/injection, schedule: Q01DX010 (ip), vehicle: saline) was 116 % of control and the T/C (dose: 400.0 mg/kg/injection, schedule: Q04DX003 (ip), vehicle: saline) was 110 % of control. The T/C (dose: 450.0 mg/kg/injection, schedule: Q06HX008 (ip), vehicle: saline) was 107 % of control, the T/C (dose: 450.0 mg/kg/injection, schedule: Q06HX012 (ip), vehicle: saline) was 92 % of control and the T/C (dose: 500.0 mg/kg/injection, schedule: Q06HX004 (ip), vehicle: saline) was 88 % of control and 116 % of control. For the same compound, the T/C (dose: 530.0 mg/kg/injection, schedule: Q04DX003 (ip), vehicle: saline) was 109 % of control, the T/C (dose: 675.0 mg/kg/injection, schedule: Q06HX012 (ip), vehicle: saline) was 107 % of control and the T/C (dose: 800.0 mg/kg/injection, schedule: Q04DX003 (ip), vehicle: saline) was 121 % of control. The T/C (dose: 1000.0 mg/kg/injection, schedule: Q06HX008 (ip), vehicle: saline) was 92 % of control.
O=S1(=O)CC(O)C(Cl)C1 (stereo not drawn) was tested, and the T/C [7] was 91 % of control, the T/C [8] was 91 % of control and the T/C (dose: 400.0 mg/kg/injection, schedule: Q01DX001 (ip), vehicle: saline) was 95 % of control.
With COC(=O)C1(C)CCC(c2ccc(OC)cc2)C(CC(=O)O)C1=O (stereo not drawn) the T/C [9] was 100 % of control, the T/C [1] was 100 % of control and the T/C [2] was 100 % of control. The T/C [3] was 113 % of control and the T/C [5] was 105 % of control.
In the case of CN(C)/N=N/c1nc[nH]c1C(N)=O, the T/C (dose: 12.5 mg/kg/injection, schedule: Q01DX009 (ip), vehicle: saline) is reported as 120 % of control, the T/C (dose: 25.0 mg/kg/injection, schedule: Q01DX009 (ip), vehicle: saline with Tween-80) is reported as 111 % of control and the T/C (dose: 25.0 mg/kg/injection, schedule: Q01DX009 (ip), vehicle: saline) is reported as 106 % of control and 123 % of control. For the same compound, the T/C (dose: 25.0 mg/kg/injection, schedule: Q04DX003 (ip), vehicle: Klucel (hydroxypropylcellulose) (HPC)) was 102 % of control, the T/C (dose: 37.5 mg/kg/injection, schedule: Q04DX003 (ip), vehicle: Klucel (hydroxypropylcellulose) (HPC)) was 116 % of control and the T/C (dose: 50.0 mg/kg/injection, schedule: Q01DX001 (ip), vehicle: Klucel (hydroxypropylcellulose) (HPC)) was 102 % of control. The T/C (dose: 50.0 mg/kg/injection, schedule: Q01DX005 (ip), vehicle: water) was 116 % of control, the T/C (dose: 50.0 mg/kg/injection, schedule: Q01DX009 (ip), vehicle: saline with Tween-80) was 111 % of control and the T/C [9] was 105 % of control. The T/C (dose: 75.0 mg/kg/injection, schedule: Q04DX003 (ip), vehicle: Klucel (hydroxypropylcellulose) (HPC)) was 102 % of control, the T/C (dose: 90.0 mg/kg/injection, schedule: Q01DX005 (ip), vehicle: Klucel (hydroxypropylcellulose) (HPC)) was 158 % of control and the T/C [1] was 90 % of control and 113 % of control. The T/C [7] was 105 % of control and 107 % of control, the T/C (dose: 100.0 mg/kg/injection, schedule: Q01DX005 (ip), vehicle: water) was 120 % of control and the T/C (dose: 100.0 mg/kg/injection, schedule: Q01DX009 (ip), vehicle: Klucel (hydroxypropylcellulose) (HPC)) was 100 % of control and 123 % of control. The T/C (dose: 100.0 mg/kg/injection, schedule: Q01DX009 (ip), vehicle: saline with Tween-80) was 111 % of control, the T/C [2] was 87 % of control and the T/C (dose: 135.0 mg/kg/injection, schedule: Q01DX005 (ip), vehicle: Klucel (hydroxypropylcellulose) (HPC)) was 186 % of control and 188 % of control. For the same compound, the T/C [6] was 111 % of control, the T/C [3] was 123 % of control and the T/C [8] was 107 % of control (2×) and 113 % of control. The T/C (dose: 200.0 mg/kg/injection, schedule: Q01DX005 (ip), vehicle: Klucel (hydroxypropylcellulose) (HPC)) was 97 % of control, the T/C (dose: 200.0 mg/kg/injection, schedule: Q01DX005 (ip), vehicle: water) was 114 % of control and the T/C (dose: 200.0 mg/kg/injection, schedule: Q01DX009 (ip), vehicle: Klucel (hydroxypropylcellulose) (HPC)) was 100 % of control and 123 % of control. The T/C (dose: 200.0 mg/kg/injection, schedule: Q01DX009 (ip), vehicle: saline with Tween-80) was 117 % of control, the T/C [4] was 100 % of control and 121 % of control and 122 % of control and the T/C (dose: 250.0 mg/kg/injection, schedule: Q04DX003 (ip), vehicle: Klucel (hydroxypropylcellulose) (HPC)) was 111 % of control. The T/C (dose: 300.0 mg/kg/injection, schedule: Q01DX001 (ip), vehicle: Klucel (hydroxypropylcellulose) (HPC)) was 120 % of control and 123 % of control, the T/C (dose: 350.0 mg/kg/injection, schedule: Q04DX003 (ip), vehicle: Klucel (hydroxypropylcellulose) (HPC)) was 163 % of control and the T/C (dose: 500.0 mg/kg/injection, schedule: Q01DX001 (ip), vehicle: Klucel (hydroxypropylcellulose) (HPC)) was 107 % of control and 111 % of control. For the same compound, the T/C (dose: 600.0 mg/kg/injection, schedule: Q01DX001 (ip), vehicle: Klucel (hydroxypropylcellulose) (HPC)) was 110 % of control and 111 % of control and the T/C (dose: 600.0 mg/kg/injection, schedule: Q01DX009 (ip), vehicle: Klucel (hydroxypropylcellulose) (HPC)) was 102 % of control.
For COc1cc2c(cc1OC)C1CCN3CCCC3N1CC2 (stereo not drawn), the T/C [1] was 100 % of control.
